# Key:
# Assay type in all cases: in vivo, human
# [1] = test system: subjects with mild-to-moderate Alzheimer's disease; assay: Clinical study, Cognition composite score
# Procedure: (§1) A double-blind study of 3 doses of the Test Composition or placebo in subjects with mild-to-moderate Alzheimer's disease, with or without receiving a concomitant AChEI for 24 weeks (168 days) after a 7 day placebo run-in period.
# (§2) Subjects with mild to moderate Alzheimer's disease receiving stable treatment with an AChEI (donepezil or rivastigmine: ‘add-on’ subjects) or not receiving an AChEI (de novo subjects′) received 0.3, 1, or 2 mg doses of Test Composition or placebo for up to 24 weeks (168 days) of double-blind treatment, after a 7-day single-blind, placebo run-in period to assess study drug compliance. A follow-up telephone contact was conducted approximately 15 days after the last dose of study drug for questions regarding safety.
# (§3) These analyses were prespecified in the analytical plan (ITT population), and included the following: Cognition composite score (ADAS-cog Word Recall, Word Recognition, & Orientation, and COWAT and CFT), Memory composite score (ADAS-cog Word Recall, Word Recognition, and Orientation), and Executive Function composite score (COWAT and CFT).
# (§4) Composite Scores—Three composite scores were calculated: (1) Composite Cognition Score (ADAS-cog Word Recall, Word Recognition, and Orientation, COWAT and CFT); (2) Memory Composite Score (ADAS-cog Word Recall, Word Recognition, and Orientation); and (3) Executive Function Composite Score (COWAT and CFT).
# (§5) The composite score is only computed when all test scores are available.
# [2] = test system: subjects with mild-to-moderate Alzheimer's disease; assay: Clinical study, Executive Function composite score; settings: for Executive function composite score Effect Size: over a 23 week period
# Procedure: as §1, §2, §3, §4, §5
# [3] = test system: subjects with mild-to-moderate Alzheimer's disease; assay: Responder analysis: PK/PD effects (ADAS-Cog)
# Source text: The response by plasma level of Test Compound was also investigated. A ‘responder’ definition of >3 pt ADAS-Cog effect was utilized. The plasma levels of responders and nonresponders informed a logistic regression model. […] FIG. 12 illustrates the mean plasma concentration levels (including the 95% confidence levels and the measured extremes) of Test Compound, and FIG. 13 illustrates the Exposure Response analysis, using plasma concentration levels of Test Compound and ADAS-Cog-13 changes. The relationship between dose and likelihood of clinical response, as defined by either an ADAS-Cog effect ≧3 points, or ≧2 points, is summarized in Table 19: […]
smiles,measurement,setting,value
"Cl.O.O=C(N[C@H]1CN2CCC1CC2)c1cc2cccc(Cl)c2s1 [Test Compound, (R)-7-chloro-N-(quinuclidin-3-yl)benzo[b]thiophene-2-carboxamide, hydrochloride, monohydrate]",Cognition Composite Score (Baseline was assigned the value of zero @ Week 0),"[1]; 0.3 mg daily dose, Week 4",0.0036
same,Cognition Composite Score (Baseline was assigned the value of zero @ Week 0),"[1]; 0.3 mg daily dose, Week 12",0.0171
same,Cognition Composite Score (Baseline was assigned the value of zero @ Week 0),"[1]; 0.3 mg daily dose, Week 18",−0.0245
same,Cognition Composite Score (Baseline was assigned the value of zero @ Week 0),"[1]; 0.3 mg daily dose, Week 23",−0.0451
same,Cognition Composite Score (Baseline was assigned the value of zero @ Week 0),"[1]; 1 mg daily dose, Week 4",0.0042
same,Cognition Composite Score (Baseline was assigned the value of zero @ Week 0),"[1]; 1 mg daily dose, Week 12",0.0804
same,Cognition Composite Score (Baseline was assigned the value of zero @ Week 0),"[1]; 1 mg daily dose, Week 18",−0.0102
same,Cognition Composite Score (Baseline was assigned the value of zero @ Week 0),"[1]; 1 mg daily dose, Week 23",0.0287
same,Cognition Composite Score (Baseline was assigned the value of zero @ Week 0),"[1]; 2 mg daily dose, Week 4",−0.0084
same,Cognition Composite Score (Baseline was assigned the value of zero @ Week 0),"[1]; 2 mg daily dose, Week 12",0.0513
same,Cognition Composite Score (Baseline was assigned the value of zero @ Week 0),"[1]; 2 mg daily dose, Week 18",0.0915
same,Cognition Composite Score (Baseline was assigned the value of zero @ Week 0),"[1]; 2 mg daily dose, Week 23",0.1276
same,Cognition composite score Effect Size,"[1]; 2 mg versus placebo, over a 23 week period",0.42
same,Executive Function Composite Score (Baseline was assigned the value of zero @ Week 0),"[2]; 0.3 mg daily dose, Week 4",0.0074
same,Executive Function Composite Score (Baseline was assigned the value of zero @ Week 0),"[2]; 0.3 mg daily dose, Week 12",0.0391
same,Executive Function Composite Score (Baseline was assigned the value of zero @ Week 0),"[2]; 0.3 mg daily dose, Week 18",−0.0224
same,Executive Function Composite Score (Baseline was assigned the value of zero @ Week 0),"[2]; 0.3 mg daily dose, Week 23",−0.0153
same,Executive Function Composite Score (Baseline was assigned the value of zero @ Week 0),"[2]; 1 mg daily dose, Week 4",0.0202
same,Executive Function Composite Score (Baseline was assigned the value of zero @ Week 0),"[2]; 1 mg daily dose, Week 12",0.0609
same,Executive Function Composite Score (Baseline was assigned the value of zero @ Week 0),"[2]; 1 mg daily dose, Week 18",0.0418
same,Executive Function Composite Score (Baseline was assigned the value of zero @ Week 0),"[2]; 1 mg daily dose, Week 23",0.0476
same,Executive function composite score Effect Size,[2]; 1 mg versus placebo,0.32
same,Executive Function Composite Score (Baseline was assigned the value of zero @ Week 0),"[2]; 2 mg daily dose, Week 4",−0.0311
same,Executive Function Composite Score (Baseline was assigned the value of zero @ Week 0),"[2]; 2 mg daily dose, Week 12",−0.0452
same,Executive Function Composite Score (Baseline was assigned the value of zero @ Week 0),"[2]; 2 mg daily dose, Week 18",0.0188
same,Executive Function Composite Score (Baseline was assigned the value of zero @ Week 0),"[2]; 2 mg daily dose, Week 23",0.0244
same,Executive function composite score Effect Size,[2]; 2 mg versus placebo,0.27
same,"Responders, ADAS-Cog (≧2 points)",[3]; 0.3 mg,31%
same,"Responders, ADAS-Cog (≧3 points)",[3]; 0.3 mg,25%
same,"Responders, ADAS-Cog (≧2 points)",[3]; 1 mg,33%
same,"Responders, ADAS-Cog (≧3 points)",[3]; 1 mg,28%
same,"Responders, ADAS-Cog (≧2 points)",[3]; 2 mg,51%
same,"Responders, ADAS-Cog (≧3 points)",[3]; 2 mg,45%
same,Relationship of plasma level and likelihood of being a responder,"[3]; responder >3 pt ADAS-Cog effect, logistic regression model, p=0.003",significant plasma level/exposure response relationship exists

# — US9585877B2, “Methods of maintaining, treating or improving cognitive function” (Forum Pharmaceuticals, Inc., priority 2012, dated 2017)
